Reference: article PMC7340446, “Optimization of PTH/PTHrP Hybrid Peptides to Derive a Long‐Acting PTH Analog (LA‐PTH)” (JBMR Plus, 2020)
Where no end group is shown, it is not given here.

Experiments:
[1] = Pharmacokinetics in normal rats, i.v., plasma peptide by ELISA; assay type: in vivo, rat; conditions: i.v. 10 nmol/kg, plasma with protease inhibitors, n = 4 (M‐PTH/PTHrP) or 3 (PTH(1–34))
Method: For pharmacokinetic studies, plasma samples were prepared in the presence of protease inhibitors (aprotinin, leupeptin, EDTA). Plasma levels of PTH(1–34) were assessed by ELISA assay (Human PTH(1–34) Specific ELISA Kit; Immutopics Inc, San Clemente, CA, USA), and plasma levels of M‐PTH/PTHrP were assessed by ELISA assay (PTH‐RP 1–34 Human Enzyme Immunoassay Kit; Peninsula Laboratories International, San Carlos CA, USA) using M‐PTH/PTHrP peptides as standard solutions.
Figure 3 Pharmacodynamic and pharmacokinetic profiles of M‐PTH/PTHrP and PTH(1–34) in rats. (A) Effects of M‐PTH/PTHrP and PTH(1–34) on blood ionized Ca in TPTX rats by i.v. injection. M‐PTH/PTHrP and PTH(1–34) were injected intravenously in TPTX rats at the indicated doses, and blood samples were collected from the tail vein measured for ionized Ca; data are means ± SE; n = 5 or 3 (PTH(1–34)). *p < 0.05, **p < 0.01, ***p < 0.005 M‐PTH/PTHrP or PTH(1–34) versus TPTX‐vehicle. […] M‐PTH/PTHrP and PTH(1–34) each at a dose of 10 nmol/kg were i.v. administered, and blood samples were collected from the jugular vein in the presence of proteinase inhibitors (Aprotinin, Leupeptin, and EDTA) and the plasma samples were assessed for peptide concentration using a hPTHrP(1–34)‐targeted EIA for M‐PTH/PTHrP and an hPTH(1–34)‐targeted ELISA for PTH(1–34). […]

[2] = target: T1, human PTHR1 (RG conformation) (Homo sapiens, UniProt Q03431); test: Competition binding to the RG conformation of PTHR1
T1 construct: expressed in transfected cells; host or cells: COS-7 cells (transient co-transfection; membranes)
T1 sequence (Q03431 27-593): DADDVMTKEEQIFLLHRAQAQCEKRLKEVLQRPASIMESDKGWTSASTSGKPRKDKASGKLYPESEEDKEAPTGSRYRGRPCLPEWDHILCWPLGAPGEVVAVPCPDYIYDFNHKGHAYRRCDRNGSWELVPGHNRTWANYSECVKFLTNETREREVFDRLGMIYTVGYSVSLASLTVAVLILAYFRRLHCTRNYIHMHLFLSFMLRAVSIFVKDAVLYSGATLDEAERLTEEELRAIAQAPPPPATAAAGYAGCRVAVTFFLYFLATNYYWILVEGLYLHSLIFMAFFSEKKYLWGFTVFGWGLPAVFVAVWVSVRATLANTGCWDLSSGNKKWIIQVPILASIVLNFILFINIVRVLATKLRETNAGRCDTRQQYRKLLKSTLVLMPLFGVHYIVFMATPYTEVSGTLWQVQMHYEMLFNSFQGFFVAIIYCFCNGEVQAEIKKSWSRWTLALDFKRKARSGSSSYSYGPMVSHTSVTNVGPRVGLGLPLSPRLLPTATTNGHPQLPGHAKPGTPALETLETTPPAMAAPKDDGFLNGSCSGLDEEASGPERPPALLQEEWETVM

- Time by which plasma concentration declined to the lowest detection level [1]: ≤ 60 min
- IC50 [2]: 0.67 ± 0.05 nM
Sequence: AVAEIQLMHQRAKWIQDLRRRFFLHHLIAEIHTAEI [M‐PTH(1‐14)/PTHrP(15‐36), [Ala^1,3,12,Gln^10,Arg^11,Trp^14]‐PTH(1‐14)/PTHrP(15–36)]
